SMILES strings stand for the structures. Where only a bound is given, the exact number is not on record here.

The subject of the experiment is KRAS G12V dependent lung adenocarcinoma cell line, NCI-H441. The experiment is described as follows: Cellular pERK (Thr202/Tyr204) FRET/HTRF assay. Type of experiment: cell-based. The following applies: Homo sapiens, NCI-H441, pERK HTRF, NCI-H441 cells (KRAS G12V). The essentials:
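Using a mix-and-read HTRF kit, phospho-ERK (Thr202/Tyr204) was detected in NCI-H441 lysates following 1 hr compound incubation at 37 °C, 5% CO2. Cells had been seeded overnight beforehand, and IC50 was derived by curve fitting.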
In general terms: Time-resolved FRET reads energy transfer from a long-lived donor to a nearby acceptor.
With `C#Cc1c(F)ccc2cc(O)cc(-c3ncc4c(N5CCCC[C@@H]6C[C@@H]65)nc(OC[C@@]56CCCN5C[C@H](F)C6)nc4c3F)c12` [Example 1, 4-(4-((1S,7R)-2-Azabicyclo[5.1.0]octan-2-yl)-8-fluoro-2-(((2R,7aS)-2-fluorotetrahydro-1H-pyrrolizin-7a(5H)-yl)methoxy)pyrido[4,3-d]pyrimidin-7-yl)-5-ethynyl-6-fluoronaphthalen-2-ol], the concentration for half-maximal inhibition (IC50) (usually the concentration that inhibits the measured activity by half) was in the range of 500 to 10000 nM.

Take `C#Cc1c(F)ccc2cc(O)cc(-c3ncc4c(N5CCCC[C@H]6C[C@H]65)nc(OC[C@@]56CCCN5C[C@H](F)C6)nc4c3F)c12` [Example 2, 4-(4-((1R,7S)-2-azabicyclo[5.1.0]octan-2-yl)-8-fluoro-2-(((2R,7aS)-2-fluorotetrahydro-1H-pyrrolizin-7a(5H)-yl)methoxy)pyrido[4,3-d]pyrimidin-7-yl)-5-ethynyl-6-fluoronaphthalen-2-ol]: the IC50 is less than 50 nM.

As to `C#Cc1c(F)ccc2cc(O)cc(-c3ncc4c(N5CCC6CC6CC5)nc(OC[C@@]56CCCN5C[C@H](F)C6)nc4c3F)c12` (stereo partly drawn) [Example 3, 4-(4-(4-Azabicyclo[5.1.0]octan-4-yl)-8-fluoro-2-(((2R,7aS)-2-fluorotetrahydro-1H-pyrrolizin-7a(5H)-yl)methoxy)pyrido[4,3-d]pyrimidin-7-yl)-5-ethynyl-6-fluoronaphthalen-2-ol], the IC50 was less than 50 nM.

As for `C#Cc1c(F)ccc2cc(N)cc(-c3ncc4c(N5CCCC[C@@H]6C[C@@H]65)nc(OC[C@@]56CCCN5C[C@H](F)C6)nc4c3F)c12` [Example 4, 4-(4-((1S,7R)-2-azabicyclo[5.1.0]octan-2-yl)-8-fluoro-2-(((2R,7aS)-2-fluorotetrahydro-1H-pyrrolizin-7a(5H)-yl)methoxy)pyrido[4,3-d]pyrimidin-7-yl)-5-ethynyl-6-fluoronaphthalen-2-amine], the IC50 is 500 to 10000 nM.

Turning to `C#Cc1c(F)ccc2cc(O)cc(-c3ncc4c(N5CCCCC6C5C6(F)F)nc(OC[C@@]56CCCN5C[C@H](F)C6)nc4c3F)c12` (stereo partly drawn) [Example 6, 4-(4-(8,8-Difluoro-2-azabicyclo[5.1.0]octan-2-yl)-8-fluoro-2-(((2R,7aS)-2-fluorotetrahydro-1H-pyrrolizin-7a(5H)-yl)methoxy)pyrido[4,3-d]pyrimidin-7-yl)-5-ethynyl-6-fluoronaphthalen-2-ol], the IC50 is less than 50 nM.

`[2H]C([2H])(Oc1nc(N2CCCC[C@@H]3C[C@@H]32)c2cnc(-c3cc(N)cc4cc(F)c(F)c(C#C)c34)c(F)c2n1)[C@@]12CCCN1C[C@H](F)C2` [Example 7, 4-(4-((1S,7R)-2-Azabicyclo[5.1.0]octan-2-yl)-8-fluoro-2-(((2R,7aS)-2-fluorotetrahydro-1H-pyrrolizin-7a(5H)-yl)methoxy-d2)pyrido[4,3-d]pyrimidin-7-yl)-5-ethynyl-6,7-difluoronaphthalen-2-amine] came in with a half-maximal inhibitory concentration (IC50) of 500 to 10000 nM.

`[2H]C([2H])(Oc1nc(N2CCC3CC3CC2)c2cnc(-c3cc(N)cc4cc(F)c(F)c(C#C)c34)c(F)c2n1)[C@@]12CCCN1C[C@H](F)C2` (stereo partly drawn) [Example 9, 4-(4-(4-Azabicyclo[5.1.0]octan-4-yl)-8-fluoro-2-(((2R,7aS)-2-fluorotetrahydro-1H-pyrrolizin-7a(5H)-yl)methoxy-d2)pyrido[4,3-d]pyrimidin-7-yl)-5-ethynyl-6,7-difluoronaphthalen-2-amine] showed an IC50 of 50 to 500 nM.

Compound `[2H]C([2H])(Oc1nc(N2CCCO[C@H]3C[C@H]32)c2cnc(-c3cc(O)cc4ccc(F)c(C#C)c34)c(F)c2n1)[C@@]12CCCN1C[C@H](F)C2` [Example 10, 4-(4-((1S,7R)-2-Oxa-6-azabicyclo[5.1.0]octan-6-yl)-8-fluoro-2-(((2R,7aS)-2-fluorotetrahydro-1H-pyrrolizin-7a(5H)-yl)methoxy-d2)pyrido[4,3-d]pyrimidin-7-yl)-5-ethynyl-6-fluoronaphthalen-2-ol] came in with an IC50 of less than 50 nM.

For `[2H]C([2H])(Oc1nc(N2CCCO[C@@H]3C[C@@H]32)c2cnc(-c3cc(O)cc4ccc(F)c(C#C)c34)c(F)c2n1)[C@@]12CCCN1C[C@H](F)C2` [Example 11, 4-(4-((1R,7S)-2-Oxa-6-azabicyclo[5.1.0]octan-6-yl)-8-fluoro-2-(((2R,7aS)-2-fluorotetrahydro-1H-pyrrolizin-7a(5H)-yl)methoxy-d2)pyrido[4,3-d]pyrimidin-7-yl)-5-ethynyl-6-fluoronaphthalen-2-ol], the IC50 was in the range of 50 to 500 nM.

Compound `C#Cc1c(F)ccc2cc(O)cc(-c3ncc4c(N5CCCC6CC6C5)nc(OC[C@@]56CCCN5C[C@H](F)C6)nc4c3F)c12` (stereo partly drawn) [Example 12, 4-(4-(3-Azabicyclo[5.1.0]octan-3-yl)-8-fluoro-2-(((2R,7aS)-2-fluorotetrahydro-1H-pyrrolizin-7a(5H)-yl)methoxy)pyrido[4,3-d]pyrimidin-7-yl)-5-ethynyl-6-fluoronaphthalen-2-ol] showed an IC50 of less than 50 nM.

In turn, `[2H]C([2H])(Oc1nc(N2CCCO[C@H]3C[C@H]32)c2cnc(-c3cc(N)cc4cc(F)c(F)c(C#C)c34)c(F)c2n1)[C@@]12CCCN1C[C@H](F)C2` [Example 17, 4-(4-((1S,7R)-2-Oxa-6-azabicyclo[5.1.0]octan-6-yl)-8-fluoro-2-(((2R,7aS)-2-fluorotetrahydro-1H-pyrrolizin-7a(5H)-yl)methoxy-d2)pyrido[4,3-d]pyrimidin-7-yl)-5-ethynyl-6,7-difluoronaphthalen-2-amine] yielded an IC50 of less than 50 nM.

Turning to `[2H]C([2H])(Oc1nc(N2CCCO[C@@H]3C[C@@H]32)c2cnc(-c3cc(N)cc4cc(F)c(F)c(C#C)c34)c(F)c2n1)[C@@]12CCCN1C[C@H](F)C2` [Example 18, 4-(4-((1R,7S)-2-Oxa-6-azabicyclo[5.1.0]octan-6-yl)-8-fluoro-2-(((2R,7aS)-2-fluorotetrahydro-1H-pyrrolizin-7a(5H)-yl)methoxy-d2)pyrido[4,3-d]pyrimidin-7-yl)-5-ethynyl-6,7-difluoronaphthalen-2-amine], the IC50 lay within 500 to 10000 nM.

In the case of `[2H]C([2H])(Oc1nc(N2CCOC[C@@H]3[C@H]2C3(F)F)c2cnc(-c3cc(N)cc4cc(F)c(F)c(C#C)c34)c(F)c2n1)[C@@]12CCCN1C[C@H](F)C2` [Example 19, 4-(4-((1S,7S)-8,8-Difluoro-5-oxa-2-azabicyclo[5.1.0]octan-2-yl)-8-fluoro-2-(((2R,7aS)-2-fluorotetrahydro-1H-pyrrolizin-7a(5H)-yl)methoxy-d2)pyrido[4,3-d]pyrimidin-7-yl)-5-ethynyl-6,7-difluoronaphthalen-2-amine], the IC50 is less than 50 nM.

In turn, `[2H]C([2H])(Oc1nc(N2CCOC[C@H]3[C@@H]2C3(F)F)c2cnc(-c3cc(N)cc4cc(F)c(F)c(C#C)c34)c(F)c2n1)[C@@]12CCCN1C[C@H](F)C2` [Example 20, 4-(4-((1R,7R)-8,8-Difluoro-5-oxa-2-azabicyclo[5.1.0]octan-2-yl)-8-fluoro-2-(((2R,7aS)-2-fluorotetrahydro-1H-pyrrolizin-7a(5H)-yl)methoxy-d2)pyrido[4,3-d]pyrimidin-7-yl)-5-ethynyl-6,7-difluoronaphthalen-2-amine] registered an IC50 of 500 to 10000 nM.

With `[2H]C([2H])(Oc1nc(N2CCCO[C@H]3[C@@H](F)[C@H]32)c2cnc(-c3cc(N)cc4cc(F)c(F)c(C#C)c34)c(F)c2n1)[C@@]12CCCN1C[C@H](F)C2` [Example 21, 5-Ethynyl-6,7-difluoro-4-(8-fluoro-4-((1R,7S,8S)-8-fluoro-2-oxa-6-azabicyclo[5.1.0]octan-6-yl)-2-(((2R,7aS)-2-fluorotetrahydro-1H-pyrrolizin-7a(5H)-yl)methoxy-d2)pyrido[4,3-d]pyrimidin-7-yl)naphthalen-2-amine], the half-inhibitory concentration (IC50) fell in the range of 500 to 10000 nM.

`[2H]C([2H])(Oc1nc(N2CCCO[C@@H]3[C@H](F)[C@@H]32)c2cnc(-c3cc(N)cc4cc(F)c(F)c(C#C)c34)c(F)c2n1)[C@@]12CCCN1C[C@H](F)C2` [Example 22, 5-Ethynyl-6,7-difluoro-4-(8-fluoro-4-((1S,7R,8R)-8-fluoro-2-oxa-6-azabicyclo[5.1.0]octan-6-yl)-2-(((2R,7aS)-2-fluorotetrahydro-1H-pyrrolizin-7a(5H)-yl)methoxy-d2)pyrido[4,3-d]pyrimidin-7-yl)naphthalen-2-amine]: the IC50 lay in the range of 50 to 500 nM.

For `[2H]C([2H])(Oc1nc(N2CCCO[C@@H]3[C@@H](F)[C@@H]32)c2cnc(-c3cc(N)cc4cc(F)c(F)c(C#C)c34)c(F)c2n1)[C@@]12CCCN1C[C@H](F)C2` [Example 23, 5-Ethynyl-6,7-difluoro-4-(8-fluoro-4-((1S,7R,8S)-8-fluoro-2-oxa-6-azabicyclo[5.1.0]octan-6-yl)-2-(((2R,7aS)-2-fluorotetrahydro-1H-pyrrolizin-7a(5H)-yl)methoxy-d2)pyrido[4,3-d]pyrimidin-7-yl)naphthalen-2-amine], the IC50 lay in the range of 500 to 10000 nM.

On to `[2H]C1([2H])CCO[C@H]2C[C@H]2N1c1nc(OC([2H])([2H])[C@@]23CCCN2C[C@H](F)C3)nc2c(F)c(-c3cc(N)cc4cc(F)c(F)c(C#C)c34)ncc12` [Example 25, 4-(4-((1S,7R)-2-Oxa-6-azabicyclo[5.1.0]octan-6-yl-5,5-d2)-8-fluoro-2-(((2R,7aS)-2-fluorotetrahydro-1H-pyrrolizin-7a(5H)-yl)methoxy-d2)pyrido[4,3-d]pyrimidin-7-yl)-5-ethynyl-6,7-difluoronaphthalen-2-amine], for which the IC50 was less than 50 nM.

With `[2H]C1([2H])CCO[C@@H]2C[C@@H]2N1c1nc(OC([2H])([2H])[C@@]23CCCN2C[C@H](F)C3)nc2c(F)c(-c3cc(N)cc4cc(F)c(F)c(C#C)c34)ncc12` [Example 26, 4-(4-((1R,7S)-2-Oxa-6-azabicyclo[5.1.0]octan-6-yl-5,5-d2)-8-fluoro-2-(((2R,7aS)-2-fluorotetrahydro-1H-pyrrolizin-7a(5H)-yl)methoxy-d2)pyrido[4,3-d]pyrimidin-7-yl)-5-ethynyl-6,7-difluoronaphthalen-2-amine], the IC50 lay in the range of 50 to 500 nM.

(Values after patent US20250282799A1, “SUBSTITUTED PYRIDO[4,3-d]PYRIMIDINES AS KRAS MODULATORS” (Alterome Therapeutics, Inc., priority 2023, published 2025).)
